Our source for the EC50 and inhibition values is US12421205B2, “GLP-1 receptor agonist” (HYUNDAI PHARM CO., LTD., priority 2019, dated 2025).

What is called EC50 is the concentration giving half of the maximal effect. By inhibition is commonly meant the relative decrease from the control value, in per cent.

One data set concerns the target T1, human GLP-1 receptor (Homo sapiens, UniProt P43220).
T1 construct: host or cells: CHO-K1
Description: cAMP activity test (cAMP dynamic HTRF kit) in CHO-K1/GLP-1 receptor-expressing cells. The data set is classed as cell-based. The note with it: cAMP activity, CHO-K1/GLP-1 receptor-expressing cells; read-out: EC50. The procedure:
The next day, the medium was removed, and a 50 uL of HBSS medium containing 0.1% BSA, 0.5 mM IBMX, and 5 mM HEPES was added to each well. […] The cAMP activity was measured according to the manufacturer's instructions using the cAMP dynamic HTRF kit (Cisbio, 62AM4PEC). After incubation, the medium was discarded, and the cells were lysed. cAMP-d2 and anti-cAMP cryptate conjugate were added thereto and reacted for 3 hours. […] Intracellular cAMP competes with cAMP-d2 for anti-cAMP cryptate, and the measured signal of fluorescence resonance energy transfer (FRET) is inversely proportional to intracellular cAMP.
On the technique in general: In TR-FRET formats the signal depends on donor and acceptor labels being close together.

For another data set, the target named is T2, hERG (Homo sapiens, UniProt Q12809).
T2 construct: purchased Invitrogen PV5365
T2 sequence (Q12809 whole entry): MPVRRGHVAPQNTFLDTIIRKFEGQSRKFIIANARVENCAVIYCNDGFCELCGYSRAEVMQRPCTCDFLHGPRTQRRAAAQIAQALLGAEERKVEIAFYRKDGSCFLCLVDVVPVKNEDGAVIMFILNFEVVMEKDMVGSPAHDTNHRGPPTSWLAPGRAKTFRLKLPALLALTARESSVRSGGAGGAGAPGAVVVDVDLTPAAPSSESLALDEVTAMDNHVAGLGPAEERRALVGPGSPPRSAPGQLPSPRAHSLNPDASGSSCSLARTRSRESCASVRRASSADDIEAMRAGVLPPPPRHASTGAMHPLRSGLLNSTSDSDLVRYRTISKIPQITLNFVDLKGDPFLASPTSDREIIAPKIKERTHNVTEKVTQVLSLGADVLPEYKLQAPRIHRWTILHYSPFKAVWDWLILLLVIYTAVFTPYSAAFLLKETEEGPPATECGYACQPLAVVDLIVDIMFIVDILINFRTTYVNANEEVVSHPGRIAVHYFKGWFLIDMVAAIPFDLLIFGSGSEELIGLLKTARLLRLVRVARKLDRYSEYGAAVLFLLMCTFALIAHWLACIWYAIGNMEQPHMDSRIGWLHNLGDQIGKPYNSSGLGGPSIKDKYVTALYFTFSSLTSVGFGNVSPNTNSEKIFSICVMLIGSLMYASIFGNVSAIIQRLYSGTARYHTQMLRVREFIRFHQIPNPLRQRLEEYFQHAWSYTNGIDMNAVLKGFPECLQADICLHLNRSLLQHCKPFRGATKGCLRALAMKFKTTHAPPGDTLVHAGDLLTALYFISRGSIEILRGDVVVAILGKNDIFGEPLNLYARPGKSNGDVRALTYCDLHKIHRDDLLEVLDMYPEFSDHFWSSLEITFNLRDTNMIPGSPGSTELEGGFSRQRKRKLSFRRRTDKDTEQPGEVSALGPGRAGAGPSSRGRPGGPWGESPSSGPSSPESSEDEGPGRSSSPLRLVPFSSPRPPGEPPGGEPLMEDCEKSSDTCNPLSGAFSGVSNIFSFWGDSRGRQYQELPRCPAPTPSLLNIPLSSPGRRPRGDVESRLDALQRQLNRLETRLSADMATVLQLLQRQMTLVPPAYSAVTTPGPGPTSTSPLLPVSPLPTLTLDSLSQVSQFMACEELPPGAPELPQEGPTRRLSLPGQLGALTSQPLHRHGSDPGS
In words: hERG inhibition test (Predictor hERG Fluorescence Polarization assay kit). Conditions: probe kit Tracer (fluorescent hERG ligand), hERG % inhibition at 10 uM, relative to E-4031 and solvent control. In kind it is binding. The procedure: To measure the hERG (Human ether-a-go-go-related gene) channel inhibition rate of the compound according to the present invention, the following test was performed using a Predictor hERG Fluorescence Polarization assay kit (Invitrogen, PV5365).
Specifically, a test substance was dissolved in DMSO to prepare a 50 mM solution. A 4 mM solution was prepared by diluting the 50 mM solution with DMSO in a U bottom 96-well plate (SPL, 34096), and was then diluted 100-fold with a test buffer to prepare a 40 uM (4×) solution. The positive control E-4031 (3 mM) provided in the kit was diluted 25-fold with a test buffer to prepare a 120 uM solution) 5 uL of the diluted test substance solution was dispensed into a 384-well assay plate (corning, 3677). hERG Membrane (2×) and Tracer (4×) provided in the kit were respectively added at 10 uL and 5 uL, and then subjected to the reaction at room temperature for 2.5 hours. After completion of the reaction, fluorescence polarization (mP) was measured with a Multimode Plate Reader (Perkin-Elmer, Envision) (excitation wavelength of 531 nm, and emission wavelength 579 nm). The value of the percent inhibitory activity (% inhibition) at 10 uM of each test substance was calculated by the following equation, and the results are shown in Table 2: (% inhibition)=100−{(mP of the compound according to the present invention−E-4031 mP)/(mP of the solvent control−E-4031 mP)}×100

Molecules are shown by their SMILES.

T1 sequence (P43220 24-463): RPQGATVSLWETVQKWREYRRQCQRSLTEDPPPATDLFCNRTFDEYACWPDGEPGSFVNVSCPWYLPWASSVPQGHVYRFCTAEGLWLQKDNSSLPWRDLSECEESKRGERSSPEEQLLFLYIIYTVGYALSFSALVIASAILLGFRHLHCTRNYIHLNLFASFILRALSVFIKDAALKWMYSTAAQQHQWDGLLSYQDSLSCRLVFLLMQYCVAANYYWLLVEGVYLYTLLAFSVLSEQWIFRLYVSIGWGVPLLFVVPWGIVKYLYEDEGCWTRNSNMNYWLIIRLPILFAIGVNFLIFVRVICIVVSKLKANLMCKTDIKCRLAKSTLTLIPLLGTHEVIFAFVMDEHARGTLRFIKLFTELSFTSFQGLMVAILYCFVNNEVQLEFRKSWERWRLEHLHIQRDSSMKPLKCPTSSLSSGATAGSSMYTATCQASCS

Regarding `COCCn1c(Cc2ccc(-c3cccc(OCc4ccc(Cl)cc4F)n3)c(C)c2)nc2ccc(C(=O)O)cc21` [Example 4, 2-(4-(6-(4-chloro-2-fluorobenzyloxy)pyridin-2-yl)-3-methylbenzyl)-1-(2-methoxyethyl)-1H-benzo[d]imidazole-6-carboxylic acid], at human GLP-1 receptor, the EC50 was determined as 200 nM. Moreover, at hERG, the inhibition at 2.5 h, 10 µM is -2.87%. On the same counts, the results for `O=C(O)c1ccc2nc(Cc3ccc(-c4cccc(OCc5ccc(Cl)cc5F)n4)c(F)c3F)n(C[C@@H]3CCO3)c2c1` [Example 82, (S)-2-(4-(6-(4-chloro-2-fluorobenzyloxy)pyridin-2-yl)-2,3-difluorobenzyl)-1-(oxetan-2-ylmethyl)-1H-benzo[d]imidazole-6-carboxylic acid] are 4 nM and 7.24%. On the same counts, the results for `N#Cc1ccc(COc2cccc(-c3cc(F)c(Cc4nc5ccc(C(=O)O)cc5n4C[C@@H]4CCO4)c(F)c3)n2)c(F)c1` [Example 103, (S)-2-(4-(6-(4-cyano-2-fluorobenzyloxy)pyridin-2-yl)-2,6-difluorobenzyl)-1-(oxetan-2-ylmethyl)-1H-benzo[d]imidazole-6-carboxylic acid] are under 3.2 nM and 5.66%. Regarding `N#Cc1ccc(COc2cccc(-c3ccc(Cc4nc5ccc(C(=O)O)cc5n4C[C@@H]4CCO4)c(F)c3)n2)c(F)c1` [Example 73, (S)-2-(4-(6-(4-cyano-2-fluorobenzyloxy)pyridin-2-yl)-2-fluorobenzyl)-1-(oxetan-2-ylmethyl)-1H-benzo[d]imidazole-6-carboxylic acid], the inhibition at 2.5 h, 10 µM at hERG is -14.6%. With `O=C(O)c1ccc2nc(Cc3ccc(-c4ccc(F)c(OCc5ccc(Cl)cc5F)n4)cc3F)n(CC3CCCO3)c2c1` (centres unmarked) [Example 91, 2-(4-(6-(4-chloro-2-fluorobenzyloxy)-5-fluoropyridin-2-yl)-2-fluorobenzyl)-1-((tetrahydrofuran-2-yl)methyl)-1H-benzo[d]imidazole-6-carboxylic acid], the EC50 at human GLP-1 receptor turned out to be 7.2 nM. Moreover, the inhibition at 2.5 h, 10 µM on hERG is -68.2%. With `O=C(O)c1ccc2nc(Cc3ccc(-c4ccc(F)c(OCc5ccc(Cl)cc5F)c4)cn3)n(CC3CCCO3)c2c1` (centres unmarked) [Example 102, 2-((5-(3-(4-chloro-2-fluorobenzyloxy)-4-fluorophenyl)pyridin-2-yl)methyl)-1-((tetrahydrofuran-2-yl)methyl)-1H-benzo[d]imidazole-6-carboxylic acid], the EC50 at human GLP-1 receptor came out at 460 nM. For the same compound, on hERG, the inhibition at 2.5 h, 10 µM is -31.9%.

For `O=C(O)c1ccc2nc(Cc3ccc(-c4cccc(OCc5ccc(Cl)cc5F)c4)cc3F)n(C[C@H]3CCCO3)c2c1` [Example 41, (R)-2-((3′-(4-chloro-2-fluorobenzyloxy)-3-fluorobiphenyl-4-yl)methyl)-1-((tetrahydrofuran-2-yl)methyl)-1H-benzo[d]imidazole-6-carboxylic acid], the EC50 on human GLP-1 receptor was found to be 110 nM. Besides, on hERG, the inhibition at 2.5 h, 10 µM was -16%. Take `O=C(O)c1ccc2nc(Cc3ccc(-c4cccc(OCc5ccc(Cl)cc5F)n4)c(F)c3)n(CCF)c2c1` [Example 55, 2-(4-(6-(4-chloro-2-fluorobenzyloxy)pyridin-2-yl)-3-fluorobenzyl)-1-(2-fluoroethyl)-1H-benzo[d]imidazole-6-carboxylic acid]: the EC50 at human GLP-1 receptor was 210 nM. Moreover, the inhibition at 2.5 h, 10 µM at hERG was 35.4%. With `O=C(O)c1ccc2nc(Cc3ccc(-c4cccc(OCc5ccc(F)c(F)c5)n4)c(F)c3)n(CC3CCCO3)c2c1` (centres unmarked) [Example 98, 2-(4-(6-(3,4-difluorobenzyloxy)pyridin-2-yl)-3-fluorobenzyl)-1-((tetrahydrofuran-2-yl)methyl)-1H-benzo[d]imidazole-6-carboxylic acid], the EC50 at human GLP-1 receptor worked out at 61 nM. In addition, the inhibition at 2.5 h, 10 µM at hERG is -2.76%. For `O=C(O)c1ccc2nc(Cc3ccc(-c4cccc(OCc5cc(F)cc(Cl)c5)n4)c(F)c3)n(CC3CCCO3)c2c1` (centres unmarked) [Example 100, 2-(4-(6-(3-chloro-5-fluorobenzyloxy)pyridin-2-yl)-3-fluorobenzyl)-1-((tetrahydrofuran-2-yl)methyl)-1H-benzo[d]imidazole-6-carboxylic acid], the EC50 on human GLP-1 receptor worked out at 320 nM. In addition, the inhibition at 2.5 h, 10 µM at hERG was -10.2%.

Take `O=C(O)c1ccc2nc(Cc3ccc(-c4ccc(F)c(OCc5ccc(Cl)cc5F)n4)c(F)c3)n(C[C@@H]3CCO3)c2c1` [Example 117, (S)-2-(4-(6-((4-chloro-2-fluorobenzyl)oxy)-5-fluoropyridin-2-yl)-3-fluorobenzyl)-1-(oxetan-2-ylmethyl)-1H-benzo[d]imidazole-6-carboxylic acid]: on human GLP-1 receptor, the EC50 is under 3.2 nM. In addition, the inhibition at 2.5 h, 10 µM on hERG is 12.5%.

For `O=C(O)c1ccc2nc(Cc3ccc(-c4cccc(OCc5ccc(Cl)cc5F)n4)cc3)n(Cc3cccnc3)c2c1` [Example 1, 2-(4-(6-(4-chloro-2-fluorobenzyloxy)pyridin-2-yl)benzyl)-1-(pyridin-3-ylmethyl)-1H-benzo[d]imidazole-6-carboxylic acid], the EC50 on human GLP-1 receptor turned out to be 10 nM. For the same compound, the inhibition at 2.5 h, 10 µM at hERG was 1.26%. For `O=C(O)c1ccc2nc(Cc3ccc(-c4cccc(OCc5cccnc5)n4)c(F)c3)n(C[C@@H]3CCO3)c2c1` [Example 129, (S)-2-(3-fluoro-4-(6-(pyridin-3-ylmethoxy)pyridin-2-yl)benzyl)-1-(oxetan-2-ylmethyl)-1H-benzo[d]imidazole-6-carboxylic acid], the EC50 on human GLP-1 receptor amounted to 490 nM. On hERG, the inhibition at 2.5 h, 10 µM is -6.27%. The matching figures for `O=C(O)c1ccc2nc(Cc3ccc(-c4cccc(OCc5ccc(Cl)cc5F)c4)cc3F)n(Cc3cnco3)c2c1` [Example 32, 2-((3′-(4-chloro-2-fluorobenzyloxy)-3-fluorobiphenyl-4-yl)methyl)-1-(oxazol-5-ylmethyl)-1H-benzo[d]imidazole-6-carboxylic acid]: 32 nM and -11.7%. With `O=C(O)c1ccc2nc(Cc3ccc(-c4cccc(OCc5ccc(Cl)cc5F)n4)c(F)c3F)n(CC3CCCO3)c2c1` (centres unmarked) [Example 61, 2-(4-(6-(4-chloro-2-fluorobenzyloxy)pyridin-2-yl)-2,3-difluorobenzyl)-1-((tetrahydrofuran-2-yl)methyl)-1H-benzo[d]imidazole-6-carboxylic acid], the EC50 at human GLP-1 receptor was determined as 8.7 nM. For the same compound, the inhibition at 2.5 h, 10 µM on hERG was -6.72%.

Regarding `N#Cc1ccc(COc2cccc(-c3ccc(Cc4nc5ccc(C(=O)O)cc5n4CC4CCCO4)c(F)c3F)n2)c(F)c1` (centres unmarked) [Example 62, 2-(4-(6-(4-cyano-2-fluorobenzyloxy)pyridin-2-yl)-2,3-difluorobenzyl)-1-((tetrahydrofuran-2-yl)methyl)-1H-benzo[d]imidazole-6-carboxylic acid], the EC50 on human GLP-1 receptor turned out to be 37 nM. In addition, the inhibition at 2.5 h, 10 µM on hERG is -7.49%. The matching figures for `Cc1cc(Cc2nc3ccc(C(=O)O)cc3n2Cc2ccco2)ccc1-c1cccc(OCc2ccc(C#N)cc2F)c1` [Example 29, 2-((3′-(4-cyano-2-fluorobenzyloxy)-2-methylbiphenyl-4-yl)methyl)-1-(furan-2-ylmethyl)-1H-benzo[d]imidazole-6-carboxylic acid]: 900 nM and -0.75%. `COCCn1c(Cc2ccc(-c3cccc(OCc4ccc(C#N)cc4F)c3)cc2)nc2ccc(C(=O)O)cc21` [Example 21, 2-((3′-(4-cyano-2-fluorobenzyloxy)biphenyl-4-yl)methyl)-1-(2-methoxyethyl)-1H-benzo[d]imidazole-6-carboxylic acid]: the EC50 at human GLP-1 receptor was determined as 420 nM. For the same compound, the inhibition at 2.5 h, 10 µM at hERG was -9.94%. Regarding `O=C(O)c1ccc2nc(Cc3ccc(-c4cccc(OCC5CC5)n4)c(F)c3)n(C[C@@H]3CCO3)c2c1` [Example 135, (S)-2-(4-(6-(cyclopropylmethoxy)pyridin-2-yl)-3-fluorobenzyl)-1-(oxetan-2-ylmethyl)-1H-benzo[d]imidazole-6-carboxylic acid], the inhibition at 2.5 h, 10 µM on hERG is -14%. For the compound `O=C(O)c1ccc2nc(Cc3ccc(-c4cccc(OCc5ccc(Cl)cc5F)n4)cc3F)n(C[C@@H]3CCO3)c2c1` [Example 78, (S)-2-(4-(6-(4-chloro-2-fluorobenzyloxy)pyridin-2-yl)-2-fluorobenzyl)-1-(oxetan-2-ylmethyl)-1H-benzo[d]imidazole-6-carboxylic acid], the inhibition at 2.5 h, 10 µM at hERG was -17.9%. As to `O=C(O)c1ccc2nc(Cc3ccc(-c4cccc(OCc5ccc(Cl)cc5)n4)c(F)c3)n(CC3CCCO3)c2c1` (centres unmarked) [Example 94, 2-(4-(6-(4-chlorobenzyloxy)pyridin-2-yl)-3-fluorobenzyl)-1-((tetrahydrofuran-2-yl)methyl)-1H-benzo[d]imidazole-6-carboxylic acid], at hERG, the inhibition at 2.5 h, 10 µM was 18.9%.
